Measured values reported in patent publication US7915300B2, “Cysteine protease inhibitors” (Medivir AB, priority 2004, dated 2011).
Read-outs that look alike come from different tables or passages of the source.

Legend:
cathepsin K [1] = target: T1, cathepsin K (Homo sapiens, UniProt P43235); test: Cathepsin K proteolytic activity, inhibition studies (Ki) with fluorogenic peptide substrate; format: biochemical; set-up: made in house; host or cells: not fixed: E coli, Pichia or Baculovirus systems named as options; settings: side by side trials in the same assay system; read-out: Cathepsin K K^1
T1 sequence (P43235 115-329): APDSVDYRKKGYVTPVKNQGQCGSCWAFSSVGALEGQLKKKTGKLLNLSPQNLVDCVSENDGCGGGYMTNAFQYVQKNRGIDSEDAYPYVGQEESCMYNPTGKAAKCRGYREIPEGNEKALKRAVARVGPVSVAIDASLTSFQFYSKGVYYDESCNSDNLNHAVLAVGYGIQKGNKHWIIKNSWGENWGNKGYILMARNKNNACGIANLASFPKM
Description: Convenient assays for cathepsin K are carried out using human recombinant enzyme, such as that described in PDB.
The recombinant cathepsin K can be expressed in a variety of commercially available expression systems including E coli, Pichia and Baculovirus systems. The purified enzyme is activated by removal of the prosequence by conventional methods.
Standard assay conditions for the determination of kinetic constants used a fluorogenic peptide substrate, typically H-D-Ala-Leu-Lys-AMC, and were determined in either 100 mM Mes/Tris, pH 7.0 containing 1 mM EDTA and 10 mM 2-mercaptoethanol or 100 mMNa phosphate, imM EDTA, 0.1% PEG4000 pH 6.5 or 100 mM Na acetate, pH 5.5 containing 5 mM EDTA and 20 mM cysteine, in each case optionally with […] as stabiliser. The enzyme concentration used was 5 nM. The stock substrate solution was prepared at 10 mM in DMSO. Screens were carried out at a fixed substrate concentration of 60 μM and detailed kinetic studies with doubling dilutions of substrate from 250 μM. The total DMSO concentration in the assay was kept below 3%. […] Product fluorescence (excitation at 390 nm, emission at 460 nm) was monitored with a Labsystems Fluoroskan Ascent fluorescent plate reader. […]
Potential inhibitors are screened using the above assay with variable concentrations of test compound. […] Ki values were calculated according to equation 1 […]

cathepsin K [2] = target: T1, cathepsin K; settings: value from WO 02057270; read-out: Ki indicated in WO 02057270; cited from earlier work

Row | Ki (cathepsin K [1]) [nM] | Structure (SMILES) | Ki (cathepsin K [2]) [nM]
1 | 5.3 | CC(C)CC(NC(=O)c1ccc(Oc2ccccc2)cc1)C(=O)N1C[C@H](F)[C@H]2OCC(=O)[C@H]21 (stereo partly drawn) | –
2 | 66 | CC(C)CC(NC(=O)c1ccc(Oc2ccccc2)cc1)C(=O)N1CC[C@H]2OCC(=O)[C@H]21 (stereo partly drawn) | 100
